Assay results reported in a melting point compilation (Tetko et al.; mined from patent text by program, amines drawn as free bases though some values may be those of a salt).

Row | Compound | melting point [°C]
1 | CSc1ncccc1NC(=O)CCCCCCCCSc1nc2ccccc2o1 | 84 to 85
2 | CCn1cc(C2(c3cccc(Br)c3)N=C(N)N(C)C2=O)cc1C=O (centres undefined) | 194 to 195
3 | CS(=O)(=O)On1nnc2ccccc21 | 88 to 90
4 | CC(=O)Nc1sc(-c2ccc(F)cc2)cc1C(N)=O | 230 to 233
5 | Cc1oc(-c2ccccc2)nc1CCOc1ccc(C[C@@H](C(=O)O)N2CCN(S(=O)(=O)c3ccccc3)CC2)cc1 | 180 to 182
6 | C[C@H]1CN(c2ccccn2)[C@@H](C)CN1C1=c2ccccc2=NCN1c1ccccc1 (relative stereo) | 68 to 70
7 | Clc1cc2nc(CBr)c(CBr)nc2cc1Cl | 154 to 156
8 | CC(C(=O)O)c1ccc(Nc2ccc(Cl)cc2)cc1 (centres undefined) | 106 to 109
9 | Nc1cn(C2CCN(c3c(F)c(N)c4c(=O)c(C(=O)O)cn(C5CC5)c4c3F)C2)nn1 (centres undefined) | 210 to 213
10 | Cc1nc(NC(=O)CCCc2ccccc2)sc1C(=O)NCc1ccccc1 | 45 to 46
11 | Cc1ncc(CO)n1-c1ccc([N+](=O)[O-])cc1C(=O)c1ccccc1F | 188 to 192
12 | CCOCc1cc2c(N=C=S)cccc2cn1 | 66
13 | CCCn1c(=O)c(N)nc2ccccc21 | 191 to 192
14 | Clc1ccc2nc(Cl)c3ncn(-c4ccccc4Cl)c3c2c1 | 194 to 200
15 | Cc1c(Br)cc(C(C)(C)C)c(O)c1-c1nc2cc(OC(F)(F)F)ccc2[nH]1 | 235 to 236
16 | NC(=O)CCC(C(=O)O)N1C(=O)c2cccc(N)c2C1=O (centres undefined) | 165 to 167
17 | O=C1Nc2cc(Cl)ccc2C(=O)C1c1coc2ccccc12 (centres undefined) | 290
18 | CCCCCCCCCCCCCCCCCCOc1cc(OCCCOc2ccccc2OCc2ccccc2)cc(C(=O)OCc2ccccc2)c1 | 49 to 50
19 | NS(=O)(=O)c1nc2ccc(OC(=O)c3ccccc3)cc2s1 | 208 to 210
20 | CC(=O)Oc1cccc(CCNC(=O)/C=C/c2cccnc2)c1 | 99
21 | CNC(=O)N1CCc2[nH]cnc2C1 | 213
22 | Clc1ccc(Cn2cc(CCn3ccnc3)c3ccccc32)cc1 | 78 to 80

Row | Compound | melting point [°C]
23 | O=S(=O)(NS(=O)(=O)OCC(F)(F)F)OCC(F)(F)F | 55 to 58
24 | O=C(CCCCO)NCC1Cc2ccccc2Cc2ccccc21 (centres undefined) | 96 to 98
25 | O=C1CCSC(=S)N1c1c(F)c(F)c(F)c(F)c1F | 164
26 | CC(=O)Nc1nc2c(s1)-c1c(cnn1-c1ccc(C(=O)N3CCC(NC(=O)Cc4ccccc4)CC3)cc1)CC2 | 271 to 272
27 | CC[C@@H](c1ccccc1)N(Cc1ccc(C(=O)N2CCC[C@@H]2CO)cc1)S(=O)(=O)c1ccc(Cl)cc1 | 120 to 121
28 | Cc1ccc(C2=NC(C)(C(C)C)C(=S)N2)cc1 (centres undefined) | 167 to 170
29 | c1ccc2c(Nc3ccc4[nH]ncc4c3)nc(-c3ccc4c(c3)CCO4)nc2c1 | 267 to 272
30 | CCOC(=O)C1C(=O)N(Cc2ccc(Br)cc2F)C(=O)c2cccn21 (centres undefined) | 114 to 115
31 | CS(=O)(=O)c1ccc(-n2nc(C(F)F)cc2-c2nc3ccc(F)cc3s2)cc1 | 204 to 206
32 | CCOC(=O)c1cccc2c1N=C(c1ccccc1Cl)CC2=O | 152 to 153
33 | CS(=O)(=O)c1ccc(-c2cc(CO)nn2CC2CCCCC2)cc1 | 104
34 | COc1ccc2c(c1)CC[C@@H]1[C@@H]2CC[C@@]2(C)[C@H]1CCC21C=CCO1 (some centres undefined) | 159 to 161
35 | O=C(NCCO)/C(=C/c1ccc(OC(F)(F)F)cc1)NC(=O)c1ccc(OCCC2CC2)cc1 | 142 to 144
36 | CNc1nc(C)nc(N2CCCc3ccccc32)n1 | 159 to 160
37 | Cc1ccc(Cl)cc1NC(=S)Nc1nccs1 | 197 to 198
38 | CC(C)=CCN1Cc2cccc3[nH]c(=S)n(c23)CC1C (centres undefined) | 128
39 | Cc1ccnc2c1n(C(C)C)c(=O)n2-c1ccc(Oc2nc3cccnc3n2C)cc1 | 270 to 271
40 | CN1C(=O)C(C(=O)Nc2ccc(F)cc2)S(=O)(=O)c2cc(Cl)ccc21 (centres undefined) | 205
41 | COC(=O)CCCCCCCCCCCCCCCNc1ccc(C(=O)OC)cc1 | 92 to 93
42 | Cn1c(=N)c(F)cn(S(=O)(=O)c2ccccc2)c1=O | 144
43 | NNC(=O)c1cn(C2CCN(Cc3ccccc3)C2)nn1 (centres undefined) | 123
44 | COc1ccc(N2CCN(c3c(C)c(C)c4c(c3C)C(O)(c3ccc(F)nc3)C(C)(C)O4)CC2)cc1 (centres undefined) | 129 to 131

Row | Compound | melting point [°C]
45 | CC(C)(C)OC(=O)NCC(COS(C)(=O)=O)NC(=O)OC(C)(C)C (centres undefined) | 94 to 96
46 | O=C1CCN=C(c2ccccc2F)c2cc(Cl)ccc21 | 107 to 109
47 | NC(=O)c1[nH]c2ccc(C(O)(C(F)(F)F)C(F)(F)F)cc2c1-c1ccccc1 | 220 to 224
48 | O=c1oc2ccccc2c(O)c1CCCOc1ccccc1 | 125 to 126
49 | COc1cnccc1NC(=O)Nc1ccc(N2CCN(C(=O)Nc3ccc(OCCO)cc3C(F)(F)F)CC2)cc1 | 142 to 143
50 | Cc1cccc2nc(C(S)c3ncnc4[nH]cnc34)n(-c3ccccc3F)c(=O)c12 (centres undefined) | 152
51 | O=C(Nc1nc(-c2ccco2)c(C(=O)C2CCOCC2)s1)c1ccccc1OC(F)(F)F | 131 to 134
52 | NS(=O)(=O)c1ccc(-n2nc(C(F)(F)F)cc2-c2ccc(F)cc2)cc1F | 127 to 130
53 | Cc1cc2c(OCc3ccc(-c4nnn[nH]4)cc3)cccc2o1 | 196 to 197
54 | OCc1ccc(Cn2nc(OCc3ccccc3)c3ccccc32)o1 | 80 to 82
55 | CS(=O)(=O)c1ccc(-c2cnn(Cc3ccccc3)c(=O)c2Oc2ccc(F)cc2)cc1 | 188 to 190
56 | CC1(C)C(=O)Oc2ccc3cc(N)c(Cn4cncn4)cc3c21 | 160 to 163
57 | Cc1cc(-c2cccc(NC(=O)C3CC3)c2)n2ncc(C(=O)c3cccs3)c2n1 | 184 to 186
58 | O=C1c2ccccc2C(=O)N1C[C@H](O)CCl | 100 to 101
59 | CC(C)O[Si](C)(CCl)c1ccc(-c2ccccc2)cc1 (centres undefined) | 35 to 38
60 | CSCCC1(C)CCc2c(C)c(O)c(C)c(C)c2O1 (centres undefined) | 66.5 to 67
61 | CC1(C)CC(O)CC(C)(C)N1CC#CCN1C(C)(C)CC(O)CC1(C)C | 203
62 | CC(=O)Nc1nc2c(Oc3cc(-c4ccc(C(F)(F)F)nc4NC4CCN(C(C)C)C4)ncn3)cccc2s1 (centres undefined) | 140 to 141
63 | CS(=O)(=O)c1ccc(-c2sc(COc3ccc(Cl)cc3)nc2-c2ccc(F)cc2)cc1 | 140 to 143
64 | Cc1ccc(N)c(C(=O)c2ccccc2)c1 | 64 to 66

More lines, now with the values ahead:

Row | melting point [°C] | Compound
65 | 209 to 213 | COc1ccccc1N1CCN(CCn2c(=O)[nH]c3scc(C)c3c2=O)CC1
66 | 48 to 51 | COC(=O)C(C(=O)O)=C1SC=CS1
67 | 65.5 to 66.5 | CC(C)n1nc(C(Cl)C(=O)c2cccc(F)c2)ccc1=O (centres undefined)
68 | 82 to 83 | C=CCOc1cc(-n2c(OC)nc(C(F)(F)C(F)(F)F)cc2=O)c(F)cc1Cl
69 | 74 to 75 | CCOC(=O)COc1cccc2c1CCc1sc(O)nc1-2
70 | 204 to 206 | CC(=O)N(c1cccc(C(=O)O)c1)c1cc(C(C)(C)C)c(O)c(C(C)(C)C)c1
71 | 50 to 55 | COc1cc(OC)nc(OC(C(=O)O)C(C)(Oc2ccccc2)c2ccccc2)n1 (centres undefined)
72 | 140 to 142 | O=C(O)c1ccccc1C(=O)NCc1ccccn1
73 | 101 to 104 | O=C(O)Cc1ccc(O)c(Cl)c1
74 | 80 to 86 | COC(=O)c1cc(N2CCC2)c(C(F)(F)F)cc1N
75 | 120 to 122 | COc1ccnc(C(C)Sc2nc3cc(OC(F)(F)C(F)Cl)ccc3[nH]2)c1 (centres undefined)
76 | 109 to 110 | CON=C(C(=O)OC)c1ccccc1Oc1ccccc1
77 | 314 to 316 | COc1cc2ccc(-c3cc(C(=O)O)cs3)cc2cc1C12CC3CC(CC(C3)C1)C2
78 | 152 to 154 | CCCC(=O)Nc1c([N+](=O)[O-])c(C(C)(C)C)nn1-c1c(Cl)cc(C(F)(F)F)cc1Cl
79 | 95 to 97 | COC(=O)c1cc(COc2ccccc2)cc(C(=O)OC)c1
80 | 111 to 112 | COCOc1cc(OC)cc(C)c1C(=O)O
81 | 80 to 81 | CCOC(=O)c1ccc([N+](=O)[O-])c(O)c1
82 | 69 to 70 | Cc1cc(CCCCCOc2c(C)cc(-c3nnn(CCO)n3)cc2C)on1

Row | melting point [°C] | Compound
83 | 108 to 110 | COc1ccc(/C(=C\C(=O)N2CCNCC2)c2ccccc2Cl)cc1
84 | 238 to 239 | Cc1ncn(Cc2ccc(NC(=O)C(F)(F)F)cc2C(F)(F)F)c1C
85 | 116 | COc1ccc(C(O)CN2CCN(C(c3ccccc3)c3ccccc3)CC2)c(OC)c1 (centres undefined)
86 | 177 to 180 | CCOC(=O)c1c(O)c2cnc(-c3ccccc3)nc2n(CC)c1=O
87 | 154 to 155 | CCc1nn(C2CCCC2)c2cc(C3=NOC(C)(c4noc(-c5cc(OC)cc(OC)c5)n4)C3)ccc12 (centres undefined)
88 | 138 to 141 | COc1ccc(NN=C(Sc2ccc(C)c(C)c2)C(C)=O)cc1
89 | 161 to 163 | CCc1cc(O)c2cnn(C(C)=O)c2c1
90 | 130 to 134 | COC(=O)c1ccc(NC(C)=O)c(NC(=O)C(COC(C)=O)OC(C)=O)c1 (centres undefined)
91 | 202 to 203 | Cc1cc(C(=O)c2[nH]c3cc(Cl)ccc3c2NC(=O)CC(C)C)ccc1Cl
92 | 142 to 143 | COc1ccc2c(c1)C(=O)N(CCCN(C)CCN1C(=O)c3cc(OC)ccc3C(C)(C)C1=O)C(=O)C2(C)C
93 | 173 to 174 | CCOc1cc2c(c3c1OC(C)(C)C3)C(c1cccc(C(=O)NC)c1)=NC(C)(C)C2
94 | 118 | CCOC(=O)C(=CC(=CN(C)C)C(=O)C(=O)OC)Sc1ccccc1
95 | 91 to 92 | CCOC(=O)c1c(C)cc(-c2ccc(OC)c(OC)c2)cc1C
96 | 207 | CCOC(=O)c1c(S(C)=O)n(C2CC2)c2cc(F)c(F)cc2c1=O (centres undefined)
97 | 257 to 258 | COc1ccc(Cn2c3ccc(Cl)cc3c3c(C(=O)Nc4c(Cl)cncc4Cl)ccc(OC)c32)cc1
98 | 110 to 112 | CC(=O)OCc1nc2cc(Cl)c(C)cc2c(=O)n1C
99 | 178 to 182 | COc1ccc(N2CCCn3c2nc2c(Cl)ccc(C(OC(F)F)C(F)(F)F)c23)c(C)c1 (centres undefined)
